Data on 1 molecule can be found in patent US9446024B2, “Formulations for the treatment of vaginal disorders” (Mission Pharmacal Company, priority 2013, dated 2016).

Holding throughout (assay): MIC determination, agar dilution
Assay type in all cases: cell-based

For assay [1], the system named is Lactobacillus crispatus. The following applies: non-reference strain.
Assay [2] deals with Lactobacillus gasseri. The following applies: each identified strain.
Assay [3] has as its system Lactobacillus iners. Particulars: each identified strain.
Assay [4] concerns Lactobacillus jensenii. The following applies: each identified strain.
Assay [5] deals with Lactobacillus vaginalis. Particulars: Limosilactobacillus vaginalis; each identified strain.
Assay [6] has as its system Mobiluncus curtisii. Particulars: each identified strain.

A value given as a limit tells only on which side of the number the result lay.

Consider `CCS(=O)(=O)CCn1c([N+](=O)[O-])cnc1C` [tinidazole], for which the “growth inhibition at the highest concentration tested” value in assay [1] is reported as “unaffected”. In addition, the MIC in assay [2], in assay [3], in assay [4], in assay [5] and in assay [6] was above 150 µg/mL each time.

As usually defined, the MIC is the smallest concentration in the dilution series that meets the test's criterion for growth inhibition. A low value points to inhibition by little substance.
